This note sets out measurements from patent US10961222B2, “Chemical compound of isocitrate dehydrogenase inhibitor, and application thereof” (NANJING SANHOME PHARMACEUTICAL CO., LTD., priority 2016, dated 2021).

As a reminder, the IC50 is the point on the concentration scale where inhibition reaches its midpoint.

Experiment [1] deals with T1, IDH2-R140Q mutant enzyme (Homo sapiens, UniProt P48735, R140Q).
T1 construct: purchased BPS 71100-1
T1 sequence (P48735 40-452 R140Q): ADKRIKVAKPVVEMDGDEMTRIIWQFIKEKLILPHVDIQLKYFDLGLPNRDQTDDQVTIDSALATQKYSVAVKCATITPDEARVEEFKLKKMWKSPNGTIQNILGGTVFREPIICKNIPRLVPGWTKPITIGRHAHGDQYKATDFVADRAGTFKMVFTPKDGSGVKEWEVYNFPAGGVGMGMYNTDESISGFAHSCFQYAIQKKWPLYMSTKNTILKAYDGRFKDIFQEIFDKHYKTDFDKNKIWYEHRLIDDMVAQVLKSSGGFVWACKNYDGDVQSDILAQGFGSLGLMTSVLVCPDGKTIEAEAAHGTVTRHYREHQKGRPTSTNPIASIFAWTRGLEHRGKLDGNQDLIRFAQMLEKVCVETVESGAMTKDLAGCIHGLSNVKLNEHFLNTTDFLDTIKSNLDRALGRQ
As to the kind of experiment: Inhibitory activity of compounds on IDH2-R140Q enzyme in vitro (diaphorase/resazurin fluorescence). The experiment is classed as biochemical. Particulars: IDH2-R140Q, pre-incubated 16 h with enzyme and NADPH, reaction 1 h with α-ketoglutarate; read-out: R140Q IC50. On the procedure: Instrument: SpectraMax M3 Multi-Mode Microplate Reader, purchased from Molecular Devices.
In a 96-well plate, 40 μL of reaction buffer containing 2× enzyme (IDH2-WT or IDH2-R140Q) and cofactor (NADP or NADPH) was added to each well of the compound group and the DMSO control group, and 40 μL of reaction buffer containing 2× cofactor (NADP or NADPH) was added to each well of the enzyme-free control group.
20 μL of reaction buffer containing 4× compound to be tested was added to each well of the compound group. The compound was pre-formulated into 200× mother liquor with 100% DMSO; in the final reaction system, the concentration of DMSO was 0.5%. 20 μL of reaction buffer containing DMSO was added to each well of the DMSO control group; in the final reaction system, the concentration of DMSO was 0.5%.
The compound was mixed well with the enzyme and cofactor, and pre-incubated at room temperature for 16 h;
20 μL of reaction buffer containing 4× reaction substrate was added to each well. After mixed uniformly, the mixture was reacted at room temperature for 1 h.
3× termination and detection solution (it was prepared with reaction buffer, the final concentration of Diaphorase was 0.015 mg/mL, and the final concentration of Resazurin was 0.03 mM) was prepared. 40 μL of 3× termination and detection solution was added to each well of the enzyme reaction system. After mixed uniformly, the mixture was incubated at room temperature for 10 min;
Fluorescence values of two wells were obtained and averaged and the activity rate (Activity %) was calculated. The calculation formula: Activity %=(Measured data−Subtract background)/(DMSO Control−Subtract background)×100, wherein “Measured data” is fluorescence value of the compound in the pre-incubated wells, “Subtract background” is the fluorescence value of the enzyme-free control wells, and “DMSO Control” is the fluorescence value in the DMSO pre-incubated wells. Data was processed by GraphPad Prism v5.0 software and fitted to obtain IC50.
A general note: The colour change of resazurin is a common sign of viable cells or microbes.

Experiment [2] addresses T2, U87-MG cell line of overexpressed mutant IDH2 (R140Q) (Homo sapiens, UniProt P48735, R140Q).
T2 construct: expressed in transfected cells
T2 sequence (P48735 40-452 R140Q): T1 sequence (P48735 40-452 R140Q)
Kind of experiment: Cell activity in vitro: 2-HG in culture supernatant of U87-MG (IDH2-R140Q) cells by LC-MS/MS. The experiment is classed as cell-based. Conditions: U87-MG (IDH2-R140Q) cells, 72 hours, 2-HG in supernatant; read-out: IC50 (2-HG remaining compared to untreated). On the procedure: 1.2 Cells: human glioblastoma cell line U87-MG, purchased from the American Type Culture Collection (ATCC);
Cell recovery: U87-MG (IDH2-R140Q) cells and U87-MG cells were put into a 37° C. water bath, then transferred to 15 mL of pre-warmed medium, centrifuged at 1000 rpm for 5 minutes, and the medium was discarded. The cells were resuspended in 15 mL of fresh medium, transferred to a T75 flask and cultured in a 37° C. incubator with 5% CO2. After 24 hours, the medium was changed to fresh medium.
Cell passage: The above-mentioned recovered cells were transferred to a 50 mL sterile centrifuge tube, centrifuged at 1000 rpm for 5 minutes, and the medium was discarded. The cells were resuspended evenly and counted. The cell density was adjusted appropriately in a 15 mL fresh medium, and then added to T75 culture flask. The culture flask was incubated in an incubator with 5% CO2 at 37° C.
After cells grown to a relatively high density in the culture dish, the cells were trypsinized, resuspended in medium (MEM+10% FBS), and counted. After adjusting the cell concentration, the resuspended cells were seeded in a 96-well plate at 5×10^3 cells per well. After inoculation, the cells were cultured for 24 hours until the cells adhered. The medium were sucked out, and the medium containing gradient concentration of compound was added, 100 μL per well. The cells were further cultured for 72 hours. The s 20 μL of upernatant was taken and put into a 2 mL 96-well sample-processing plate. 480 μL of dilution solution was added and shaken for mixing, and then centrifuged at 4500 rpm for 5 minutes. 200 μL of supernatant was transferred for LC-MS/MS injection analysis.
Column: Shim-pack XR-ODS 30L*2.0; mobile phase: acetonitrile-0.2% ammonia, 5 mM ammonium acetate aqueous solution; column temperature: 30° C.; flow rate: 0.4 mL/min; gradient elution conditions are as follows: […]
Atmospheric […] chemical ionization (APCI) was used. Source parameters was set as follows: IonSpray Voltage/IS-4500V; auxiliary gas 1 (Ion Source Gas 1/GS 1, N2), 55Arb; auxiliary gas 2 (Ion Source Gas 2, N2), 55Arb; auxiliary gas heating temperature (Temperature/TEM), 500° C.; curtain gas/CUR, 25Arb; collision gas/CAD, N2, 8 Pa.
Multi-ion reaction monitoring (MRM) in negative ion mode (Negative) was used. […] The internal standard (IS) MRM parameters: parent ion (Q 1 Mass), 178.0 Da; daughter ion (Q3 Mass), 149.0 Da; Decluster Potential (DP), −51V; collision voltage (Collision Energy/CE), −17 eV
By determining the 2-HG content in the cell culture supernatant of each well using LC-MS/MS, the mutant enzyme activity (2-HG remaining compared to untreated %) was calculated. The calculation formula: 2-HG remaining compared to untreated %=(Measured 2-HG level—U87-MG control 2-HG level)/(Untreated 2-HG level—U87-MG control 2-HG level)×100. […] Data were processed by GraphPad Prism v5.0 software and fitted to obtain IC50.

For experiment [3], the system named is U87-MG (IDH2-R140Q) subcutaneous xenograft tumor. Kind of experiment: Subcutaneous xenograft tumor caused by U87-MG (IDH2-R140Q) mutant cells in vivo: intratumor 2-HG. The arrangement: species or system BALB/c nude mice. Particulars: U87-MG (IDH2-R140Q) subcutaneous xenograft model. From the text: 1.2 Animals: BALB/c nude mice, 6-7 weeks old, female, 18-22 g, purchased from Nanjing Jinlaichang Company.
U87-MG (IDH2-R140Q) cells and U87-MG cells (wild type) were expanded, and cells in logarithmic growth phase were used for tumor inoculation in vivo. 16 mice were inoculated subcutaneously into the right lower back of the body at an amount of 2×10^6 cells/mouse (the volume ratio of cell suspension to Matrigel was 1:0.8).
The non-mutation control group was nude mice inoculated with U87-MG cells, and the test compound groups and vehicle control group were nude mice inoculated with U87-MG (IDH2-R140Q) cells.
Each group was intragastrically administered with a corresponding concentration of the compound solution, the administration volume was 100 μL/10 g body weight, and the control group was administered the same volume of blank vehicle.
After 10 days of administration, the mice were sacrificed. The tumors were exfoliated, homogenized, and the 2-HG content in the tumor was examined.
The 2-HG concentration in the homogenate of each animal tumor in each group was determined by LC-MS/MS. The percentage (2-HG %) was calculated; the calculation formula is as follows 2-HG %=(2-HG concentration of administration group tumor−2-HG concentration of U87-MG control group tumor)/(2-HG concentration of U87−MG(IDH2-R140Q) control group tumor−2-HG concentration of U87-MG control group tumor)×100%.

With `FC(F)(F)c1cc(Nc2nc(-c3cccc(C(F)(F)F)n3)nc(N3CCOCC3)n2)ccn1` [Example 4, 4-Morpholinyl-6-(6-(trifluoromethyl)pyridin-2-yl)-N-(2-(trifluoromethyl)pyridin-4-yl)-1,3,5-triazin-2-amine], the IC50 in experiment [1] was 0.015 µM; in experiment [2], 0.021 µM.

Turning to `O[C@]1(C(F)(F)F)CCN(c2nc(Nc3ccnc(C(F)(F)F)c3)nc(-c3cccc(C(F)(F)F)n3)n2)C1` [Example 22A, (R)-4-(3-trifluoromethyl-3-hydroxypyrrolidin-1-yl)-6-(6-(trifluoromethyl)pyridin-2-yl)-N-(2-(trifluoromethyl)pyridin-4-yl)-1,3,5-triazin-2-amine], the “ability of lowering 2-HG level compared with positive compound AG-221” value in experiment [3] was “substantially superior”.

In the case of `CC(C)ONc1nc(Nc2ccnc(C(F)(F)F)c2)nc(-c2cccc(C(F)(F)F)n2)n1` [Example 27], the IC50 was 0.0125 µM in experiment [1] and 0.0312 µM in experiment [2].

For `CC(C)(C)ONc1nc(Nc2ccnc(C(F)(F)F)c2)nc(-c2cccc(C(F)(F)F)n2)n1` [Example 28, 4-(Tert-Butoxyamino)-6-(6-(trifluoromethyl)pyridin-2-yl)-N-(2-(trifluoromethyl)pyridin-4-yl)-1,3,5-triazin-2-amine], the IC50 in experiment [1] was 0.0122 µM; in experiment [2], 0.0251 µM.

`CN(C)Nc1nc(Nc2ccnc(C(F)(F)F)c2)nc(-c2cccc(C(F)(F)F)n2)n1` [Example 29]: the IC50 in experiment [1] amounted to 0.0058 µM; in experiment [2], 0.0171 µM.

For `CCN(CC(C)(C)O)c1nc(Nc2ccnc(C(F)(F)F)c2)nc(-c2cccc(C(F)(F)F)n2)n1` [Example 31, 1-(Ethyl(4-(6-(trifluoromethyl)pyridin-2-yl)-6-((2-(trifluoromethyl)pyridin-4-yl)amino)-1,3,5-triazin-2-yl)amino)-2-methylpropan-2-ol], the IC50 was 0.0213 µM in experiment [1] and 0.0381 µM in experiment [2].

For `OC1CN(c2nc(Nc3ccnc(C(F)(F)F)c3)nc(-c3cccc(C(F)(F)F)n3)n2)C1` [Example 32], the IC50 in experiment [1] worked out at 0.0265 µM; in experiment [2] it was 0.0361 µM.

For the molecule `CC1(O)CN(c2nc(Nc3ccnc(C(F)(F)F)c3)nc(-c3cccc(C(F)(F)F)n3)n2)C1` [Example 33], the values for the IC50 in experiment [1] and in experiment [2] were 0.0292 µM and 0.0102 µM, respectively.

For `FC1(F)CN(c2nc(Nc3ccnc(C(F)(F)F)c3)nc(-c3cccc(C(F)(F)F)n3)n2)C1` [Example 35, 4-(3,3-Difluoroazetidin-1-yl)-6-(6-(trifluoromethyl)pyridin-2-yl)-N-(2-(trifluoromethyl)pyridin-4-yl)-1,3,5-triazin-2-amine], the IC50 came to 0.0083 µM in experiment [1] and 0.0098 µM in experiment [2].

Take `OC1(C(F)(F)F)CCN(c2nc(Nc3ccnc(C(F)(F)F)c3)nc(-c3cccc(C(F)(F)F)n3)n2)CC1` [Example 38, 4-(Trifluoromethyl)-1-(4-(6-(trifluoromethyl)pyridin-2-yl)-6-((2-(trifluoromethyl)pyridin-4-yl)amino)-1,3,5-triazin-2-yl)piperidin-4-ol]: the IC50 is 0.0252 µM in experiment [1] and 0.0591 µM in experiment [2].

With `CC(C)(O)/C=C/c1nc(Nc2ccnc(C(F)(F)F)c2)nc(-c2cccc(C(F)(F)F)n2)n1` [Example 40, 2-Methyl-4-(4-(6-(trifluoromethyl)pyridin-2-yl)-6-((2-(trifluoromethyl)pyridin-4-yl)amino)-1,3,5-triazin-2-yl)-3-buten-2-ol], in experiment [2], the half-inhibitory concentration (IC50) came out at 0.0331 µM.

With `CC(C)(O)CCc1nc(Nc2ccnc(C(F)(F)F)c2)nc(-c2cccc(C(F)(F)F)n2)n1` [Example 41, 2-Methyl-4-(4-(6-(trifluoromethyl)pyridin-2-yl)-6-((2-(trifluoromethyl)pyridin-4-yl)amino)-1,3,5-triazin-2-yl)-3-butan-2-ol], the results for the IC50 in experiment [1] and in experiment [2] were 0.0161 µM and 0.0101 µM, respectively.

As for `CC(C)Oc1nc(Nc2ccnc(C(F)(F)F)c2)nc(-c2cccc(C(F)(F)F)n2)n1` [Example 42, 4-Isopropoxy-6-(6-(trifluoromethyl)pyridin-2-yl)-N-(2-(trifluoromethyl)pyridin-4-yl)-1,3,5-triazin-2-amine], the values for the IC50 in experiment [1] and in experiment [2] were 0.0051 µM and 0.0081 µM, respectively.

As for `FC(F)(F)COc1nc(Nc2ccnc(C(F)(F)F)c2)nc(-c2cccc(C(F)(F)F)n2)n1` [Example 43, 4-(2,2,2-Trifluoroethoxy)-6-(6-(trifluoromethyl)pyridin-2-yl)-N-(2-(trifluoromethyl)pyridin-4-yl)-1,3,5-triazin-2-amine], the IC50 in experiment [1] was found to be 0.0058 µM; in experiment [2], 0.0096 µM.

For the molecule `CC(Oc1nc(Nc2ccnc(C(F)(F)F)c2)nc(-c2cccc(C(F)(F)F)n2)n1)C(F)(F)F` (stereo not shown) [Example 44, 4-(6-(Trifluoromethyl)pyridin-2-yl)-N-(2-(trifluoromethyl)pyridin-4-yl)-6-((1,1,1-trifluoroisopropyl-2-yl)oxy)-1,3,5-triazin-2-amine], the IC50 in experiment [1] came to 0.0088 µM; in experiment [2], 0.0051 µM.
